Measured values taken from patent publication US8110543B2, “Anti-invasive and anti-angiogenic compositions” (Angstrom Pharmaceuticals, Inc., priority 1997, dated 2012).

Tested on: U87 tumors
Experiment: U87 glioblastoma orthotopic model
Assay type: in vivo, mice
Experimental: U87 cells were inoculated into the ventricles of nude mice and treatment was initiated 72 hrs after inoculation. Tumor volume was determined using caliper measurements after euthanasia and necropsy.
A: Control; B: Å6 only; C: CDDP only; D: Å6+CDDP.
U87 tumors were surgically inoculated into the cerebral ventricles of mice. The animals were allowed to recover for 72 hours at which time treatment with Å6 (75 mg/kg/day IP bid), CDDP (3 mg/kg/day given every other day from day 4×6 administrations), or a combination of Å6+CDDP was initiated,
Animals were treated for 21 days at which time they were euthanized and their brains evaluated for the presence of tumor. Transverse sections were stained with hematoxylin and eosin (H&E).
Tumor sections were also evaluated for microvessel density using antibodies specific for mouse-CD31 in immunostaining. Very few CD31^+ foci were evident in animals treated with the combination of Å6+CDDP.
Tumors were established as in the previous section, and the same therapeutic regimens were employed. Treatment was discontinued at day 21, and survival was measured. Control animals appeared moribund around day 25 and all of the animals in this group were dead by day 30.

Ac-KPSSPPEE-NH2 [Å6, CH3CO-Lys-Pro-Ser-Ser-Pro-Pro-Glu-Glu-NH2]
differentiation of the vessels (qualitative): fewer branching vessels
microvessel density (CD31+ foci), angiogenesis (tumor sections, mouse-CD31 immunostaining): inhibited angiogenesis to some extent
